In patent US20260078120A1, “SUBSTITUTED PYRIDOPYRIMIDINONES” (MIRATI THERAPEUTICS, INC., priority 2022, published 2026) one finds IC50 data, which are given here for 18 compounds.

Common to all, as to format: cell-based
For test [1], the system named is T47D (PI3Kα H1047R mutant) cells. The test is described as follows: CellTiter-Glo 2.0 luminescent cell viability assay, 72 hours, T47D cells. Summed up:
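Viability was measured by CellTiter-Glo 2.0 luminescence after approximately 72 h of compound exposure at 37° C. Plating was 1000 cells per well the day before dosing, with ten 1:4 dilutions from a 10 µM top concentration. Values as percent of vehicle were fitted by variable-slope log(inhibitor) regression to give IC50.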
For orientation: In ATP-based viability assays light output follows the ATP content of the culture.

Test [2] shares this test system. The test is described as follows: Inhibition of pAKT formation, alphaLISA SureFire Ultra AKT 1/2/3 (pS473), T47D cells. The following applies: Homo sapiens, T47D. How it is done: The ability of a compound of Formula (I) to inhibit the formation of pAKT was measured using alphaLISA Surefire Ultra AKT 1/2/3 (pS473) Assay Kit (#ALSU-PAKT-B50K) was obtained from Perkin Elmer (Waltham, MA).
To prepare assay plates for pAKT alphaLISA assays, cells were trypsinized, resuspended in fresh media, and viable cells were counted utilizing trypan blue exclusion. Prior to seeding, cells were washed with PBS and resuspended in HBSS (Gibco, #14025092). T47D (12,000/w), SKBR3(12,000/w), or MKN1(24,000/w) cells were seeded at 12 μl per well in a solid white flat bottom 384 cell culture plate (Perkin Elmer #6007680).
Immediately after seeding, cells were dosed using an Echo Liquid Handler (Beckman Coulter) with compounds at a […] starting concentration and serially diluted (1:4) for a total of 10 concentrations. […] Cells were incubated with the compounds (solubilized in DMSO) for approximately one hour or 24 hours at 37° C. After one hour (or 24 hours) of treatment, cells were lysed with 3 μl of the 5× lysis buffer (provided and incubated at room temperature for 15 min on a microtiter plate shaker). Once cells were sufficiently lysed, 7.5 μl of the acceptor bead mix (made using the manufacturers recommended dilutions) was added to each well and left on the microtiter plate shaker for 1 min prior to incubating plates at room temperature for one hour, in the absence of light. After one hour of incubation with the acceptor bead mix, 7.5 μl of the donor bead mix (made using the manufacturers recommended dilutions) was added to each well and left on the microtiter plate shaker for 1 min prior to incubating plates at room temperature overnight in the absence of light. Plates were then imaged the following day using a CLARIOstar microplate reader (BMG Labtech, Germany).
Percent of control values were calculated by subtracting the average signal from the positive control (alpelisib) treated wells from all treated wells (including DMSO control wells) and then divided by the average signal from the vehicle DMSO treated control wells. Percent of vehicle control values were plotted as log (inhibitor) vs. response-Variable slope (four parameters) for curve fitting and IC50 values were determined using XLfit.
Key: N.D. =not determined
Inhibition of pAKT in T47D (PI3Kα H1047R mutant) cells by Exemplary Compounds of Formula (I)
(In general: Alpha assays give light when donor and acceptor beads are brought close together.)

Test [3] deals with SKBR3 (PI3Kα wild type) cells. The test is described as follows: CellTiter-Glo 2.0 luminescent cell viability assay, 72 hours, SKBR3 cells. In outline:
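Viability measured via CTG luminescence following roughly 72 hours of compound exposure at 37° C. Dosing used a 10 um starting concentration diluted 1:4 over 10 points; percent-of-vehicle data fitted with a variable-slope four-parameter model for IC50.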

Where [4] appears, read: Homo sapiens, T47D, 72 h, T47D (PI3Kα H1047R mutant) cells, CellTiter-Glo, approximately 72 hours, read-out: T47D (H1047R mutant) Viability IC50.
[5] abbreviates: T47D (PI3Kα H1047R mutant) cells, inhibition of pAKT (pS473) formation, approximately one hour or 24 hours treatment, read-out: T47D pAKT (H1047R mutant) IC50.
The mark [6] stands for this setting: Homo sapiens, SK-BR-3, 72 h, SKBR3 (PI3Kα wild type) cells, CellTiter-Glo, approximately 72 hours, read-out: SKBR3 (WT) Viability IC50.
Setting [7] is: T47D (PI3Kα H1047R mutant) cells, CellTiter-Glo, approximately 72 hours, read-out: T47D (H1047R mutant) Viability IC50.
The mark [8] stands for this setting: SKBR3 (PI3Kα wild type) cells, CellTiter-Glo, approximately 72 hours, read-out: SKBR3 (WT) Viability IC50.

Where two headings read alike, the source gives them in different places. Some results are limits rather than exact numbers.

As a reminder, the IC50 is the concentration that gives 50% inhibition. For the compound `Cc1cc([C@@H](C)Nc2ccccc2C(=O)O)c2nc(N3CC[C@@H]3CF)c(C#N)c(=O)n2c1` (single isomer, unassigned) [Example 10-53], the IC50 was 77.2 nM in test [1] (setting [4]), 4.35 nM in test [2] (setting [5]) and more than 10000 nM in test [3] (setting [6]).
As to `Cc1cc([C@@H](C)Nc2ccccc2C(=O)O)c2nc(N3CC[C@H]3CF)c(C#N)c(=O)n2c1` (single isomer, unassigned) [Example 10-54], the IC50 was 72.2 nM in test [1] (setting [4]), 3.36 nM in test [2] (setting [5]) and more than 10000 nM in test [3] (setting [6]).
On to `Cc1cc([C@@H](C)Nc2ccccc2C(=O)O)c2nc(N3CC[C@@H]3C)c(C#N)c(=O)n2c1` (single isomer, unassigned) [Example 10-95], for which the IC50 was 111 nM in test [1] (setting [4]), 1.38 nM in test [2] (setting [5]) and more than 10000 nM in test [3] (setting [6]).
On the same counts, the results for `Cc1cc([C@@H](C)Nc2ccccc2C(=O)O)c2nc(N3CC[C@H]3C)c(C#N)c(=O)n2c1` (single isomer, unassigned) [Example 10-96] are 84.4 nM, 0.905 nM and more than 10000 nM.
As to `Cc1cc([C@@H](C)Nc2ccccc2C(=O)O)c2nc(N3CCN(c4ccc(C#N)cc4)CC3)c(C)c(=O)n2c1` [Example 10-1, (R)-2-((1-(2-(4-(4-cyanophenyl)piperazin-1-yl)-3.7-dimethyl-4-oxo-4H-pyrido[1,2-a]pyrimidin-9-yl)ethyl)amino)benzoic acid], the figures for the half-maximal inhibitory concentration (IC50) in test [1] (setting [4]), in test [2] (setting [5]) and in test [3] (setting [6]) were 38.5 nM, 2.27 nM and 9890 nM, respectively.
In the same order, the values of `Cc1cc([C@@H](C)Nc2ccc(C)nc2C(=O)O)c2nc(N3Cc4ccccc4C3)c(C#N)c(=O)n2c1` [Example 10-5, (R)-3-((1-(3-cyano-2-(isoindolin-2-yl)-7-methyl-4-oxo-4H-pyrido[1,2-a]pyrimidin-9-yl)ethyl)amino)-6-methylpicolinic acid] are 13.6 nM, 0.425 nM and 2190 nM.
As to `CCc1cc([C@@H](C)Nc2ccccc2C(=O)O)c2nc(N3Cc4ccccc4C3)c(C#N)c(=O)n2c1` [Example 10-10, (R)-2-((1-(3-cyano-7-ethyl-2-(isoindolin-2-yl)-4-oxo-4H-pyrido[1,2-a]pyrimidin-9-yl)ethyl)amino)benzoic acid], the IC50 in test [1] (setting [7]) was 29.3 nM; in test [2] (setting [5]) it was 1.21 nM; in test [3] (setting [8]), 7450 nM.
With `C[C@@H](Nc1ccccc1C(=O)O)c1cc(Cl)cn2c(=O)c(C#N)c(N3Cc4ccccc4C3)nc12` [Example 10-11, (R)-2-((1-(7-chloro-3-cyano-2-(isoindolin-2-yl)-4-oxo-4H-pyrido[1,2-a]pyrimidin-9-yl)ethyl)amino)benzoic acid], the IC50 in test [1] (setting [4]) is 30.5 nM; in test [2] (setting [5]) it was 1.71 nM; in test [3] (setting [6]), 7770 nM.
For the compound `Cc1cc([C@@H](C)Nc2ccccc2C(=O)O)c2nc(N3CCC(F)(F)CC3)c(Br)c(=O)n2c1` [Example 10-12, (R)-2-((1-(3-bromo-2-(4,4-difluoropiperidin-1-yl)-7-methyl-4-oxo-4H-pyrido[1,2-a]pyrimidin-9-yl)ethyl)amino)benzoic acid], the IC50 was 31 nM in test [1] (setting [4]), 0.639 nM in test [2] (setting [5]) and more than 10000 nM in test [3] (setting [6]).
On the same counts, the results for `Cc1cc([C@@H](C)Nc2ccccc2C(=O)O)c2nc(N3CCN(c4cn(C)nc4C(F)(F)F)CC3)c(C)c(=O)n2c1` [Example 10-13, (R)-2-((1-(3,7-dimethyl-2-(4-(1-methyl-3-(trifluoromethyl)-1H-pyrazol-4-yl)piperazin-1-yl)-4-oxo-4H-pyrido[1,2-a]pyrimidin-9-yl)ethyl)amino)benzoic acid] are 32.8 nM, 1 nM and 5890 nM.
As to `Cc1cc([C@@H](C)Nc2ccc(Cl)nc2C(=O)O)c2nc(N3Cc4ccccc4C3)c(C#N)c(=O)n2c1` [Example 10-14, (R)-6-chloro-3-((1-(3-cyano-2-(isoindolin-2-yl)-7-methyl-4-oxo-4H-pyrido[1,2-a]pyrimidin-9-yl)ethyl)amino)picolinic acid], the results for the IC50 in test [1] (setting [4]), in test [2] (setting [5]) and in test [3] (setting [6]) were 33.1 nM, 2.34 nM and 8790 nM, respectively.
Turning to `Cc1cc([C@@H](C)Nc2ccccc2C(=O)O)c2nc(NCC3CC3)c(C#N)c(=O)n2c1` [Example 10-15, (R)-2-((1-(3-cyano-2-((cyclopropylmethyl)amino)-7-methyl-4-oxo-4H-pyrido[1,2-a]pyrimidin-9-yl)ethyl)amino)benzoic acid], the values for the IC50 in test [1] (setting [4]), in test [2] (setting [5]) and in test [3] (setting [6]) were 36.4 nM, 0.853 nM and more than 10000 nM, respectively.
In the same order, the values of `Cc1cc([C@@H](C)Nc2ccccc2C(=O)O)c2nc(N3CCCC(F)(F)C3)c(C)c(=O)n2c1` [Example 10-18, (R)-2-((1-(2-(3,3-difluoropiperidin-1-yl)-3,7-dimethyl-4-oxo-4H-pyrido[1,2-a]pyrimidin-9-yl)ethyl)amino)benzoic acid] are 38.4 nM, 2.01 nM and more than 10000 nM.
As for `Cc1cc([C@@H](C)Nc2ccccc2C(=O)O)c2nc(N3CCN(c4ccc(C#N)c5cnccc45)CC3)c(C)c(=O)n2c1` [Example 10-19, (R)-2-((1-(2-(4-(8-cyanoisoquinolin-5-yl)piperazin-1-yl)-3,7-dimethyl-4-oxo-4H-pyrido[1,2-a]pyrimidin-9-yl)ethyl)amino)benzoic acid], the IC50 in test [1] (Homo sapiens, T47D, 72 h, read-out: T47D (H1047R mutant) Viability IC50 (nM)) was determined as 41.4 nM; in test [2] (read-out: T47D pAKT (H1047R mutant) IC50 (nM)), 0.244 nM; in test [3] (Homo sapiens, SK-BR-3, 72 h, read-out: SKBR3 (WT) Viability IC50 (nM)), 7640 nM.
Regarding `Cc1cc([C@@H](C)Nc2ccccc2C(=O)O)c2nc(N3CCN(c4ccc(C#N)cc4)CC3C)c(C)c(=O)n2c1` (stereo partly drawn) [Example 10-20, 2-(((1R)-1-(2-(4-(4-cyanophenyl)-2-methylpiperazin-1-yl)-3,7-dimethyl-4-oxo-4H-pyrido[1,2-a]pyrimidin-9-yl)ethyl)amino)benzoic acid], the IC50 in test [1] (setting [7]) is 42.7 nM; in test [2] (setting [5]), 1.6 nM; in test [3] (setting [8]), 7450 nM.
Regarding `Cc1cc([C@@H](C)Nc2ccccc2C(=O)O)c2nc(N3CCN(c4ccc(C#N)cc4)[C@@H](C)C3)c(C)c(=O)n2c1` [Example 10-21, 2-(((R)-1-(2-((S)-4-(4-cyanophenyl)-3-methylpiperazin-1-yl)-3,7-dimethyl-4-oxo-4H-pyrido[1,2-a]pyrimidin-9-yl)ethyl)amino)benzoic acid], the IC50 turned out to be 45.8 nM in test [1] (setting [4]), 2.34 nM in test [2] (setting [5]) and 8070 nM in test [3] (setting [6]).
In the same order, the values of `Cc1cc([C@@H](C)Nc2ccccc2C(=O)O)c2nc(N3CCN(c4ccc(C#N)cc4)C[C@H]3C)c(C)c(=O)n2c1` [Example 10-22, 2-(((R)-1-(2-((R)-4-(4-cyanophenyl)-2-methylpiperazin-1-yl)-3,7-dimethyl-4-oxo-4H-pyrido[1,2-a]pyrimidin-9-yl)ethyl)amino)benzoic acid] are 48 nM, 3.85 nM and 5540 nM.
On to `Cc1cc([C@@H](C)Nc2ccccc2C(=O)O)c2nc(N3CCN(c4ccc(C#N)cc4)[C@H](C)C3)c(C)c(=O)n2c1` [Example 10-24, 2-(((R)-1-(2-((R)-4-(4-cyanophenyl)-3-methylpiperazin-1-yl)-3,7-dimethyl-4-oxo-4H-pyrido[1,2-a]pyrimidin-9-yl)ethyl)amino)benzoic acid], for which the IC50 in test [1] (setting [4]) was 48.6 nM; in test [2] (setting [5]), 5.49 nM; in test [3] (setting [6]), more than 10000 nM.
